Laboratory results from patent US10787447B2, “Pharmaceutical compounds” (Heptares Therapeutics Limited, priority 2018, dated 2020).
Where two headings read alike, the source gives them in different places.

Assays:
Type in all cases: cell-based
[1] = target: T1, human muscarinic M2 receptor (Homo sapiens, UniProt P08172); assay: Alphascreen Surefire phospho-ERK1/2 functional assay, M2; conditions: for Emax: CHO, read-out: % Emax cf. ACh, M2, CHO cells stably expressing human M2; for Emax / % Emax cf. ACh, M2: Emax relative to ACh; for EC50: phospho-ERK1/2
T1 sequence (P08172 1-466): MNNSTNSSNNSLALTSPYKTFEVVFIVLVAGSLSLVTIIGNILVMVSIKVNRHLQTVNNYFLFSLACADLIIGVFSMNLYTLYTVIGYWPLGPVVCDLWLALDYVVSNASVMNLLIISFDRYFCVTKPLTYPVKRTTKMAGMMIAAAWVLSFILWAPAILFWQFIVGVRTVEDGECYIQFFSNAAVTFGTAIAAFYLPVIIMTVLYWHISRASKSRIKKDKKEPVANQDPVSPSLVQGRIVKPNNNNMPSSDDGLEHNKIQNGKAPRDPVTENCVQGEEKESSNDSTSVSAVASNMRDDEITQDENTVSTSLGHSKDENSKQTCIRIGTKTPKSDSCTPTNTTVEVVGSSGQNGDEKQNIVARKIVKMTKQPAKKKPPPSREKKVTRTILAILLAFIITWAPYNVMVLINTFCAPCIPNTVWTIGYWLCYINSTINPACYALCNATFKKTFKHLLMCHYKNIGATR
Experimental: (§1) ERK1/2 phosphorylation is a downstream consequence of both Gq/11 and Gi/o protein coupled receptor activation, making it highly suitable for the assessment of M1, M3 (Gq/11 coupled) and M2, M4 receptors (Gi/o coupled), rather than using different assay formats for different receptor subtypes. CHO cells stably expressing the human muscarinic M1, M2, M3 or M4 receptor were plated (25K/well) onto 96-well tissue culture plates in MEM-alpha+10% dialysed FBS. Once adhered, cells were serum-starved overnight. Agonist stimulation was performed by the addition of 5 μL agonist to the cells for 5 min (37° C.). Media was removed and 50 μL of lysis buffer added. After 15 min, a 4 μL sample was transferred to 384-well plate and 7 μL of detection mixture added.
(§2) Isomer assignment (Isomer 1, Isomer 2, etc.) is based on the retention time of the compound using the separation technique that was performed in the final purification step. By implication, this could be reversed phase HPLC, chiral HPLC or chiral SFC retention time, and this will vary from compound to compound.

[2] = target: T2, human muscarinic M1 receptor (Homo sapiens, UniProt P11229); assay: Alphascreen Surefire phospho-ERK1/2 functional assay, M1; conditions: for EC50: phospho-ERK1/2
T2 sequence (P11229 1-460): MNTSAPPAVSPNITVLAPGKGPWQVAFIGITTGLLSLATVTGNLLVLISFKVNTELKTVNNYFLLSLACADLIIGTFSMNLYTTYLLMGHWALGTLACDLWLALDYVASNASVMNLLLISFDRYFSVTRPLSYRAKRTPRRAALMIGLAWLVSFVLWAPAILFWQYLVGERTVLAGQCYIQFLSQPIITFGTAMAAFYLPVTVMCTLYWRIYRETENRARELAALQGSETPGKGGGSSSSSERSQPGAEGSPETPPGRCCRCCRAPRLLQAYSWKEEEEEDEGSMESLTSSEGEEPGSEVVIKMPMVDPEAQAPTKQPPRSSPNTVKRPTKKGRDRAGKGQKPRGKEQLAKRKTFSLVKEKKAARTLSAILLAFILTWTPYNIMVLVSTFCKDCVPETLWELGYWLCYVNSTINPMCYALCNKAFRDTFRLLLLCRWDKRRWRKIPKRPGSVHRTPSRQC
Procedure, shortened: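 Stably transfected CHO cells, serum-starved overnight, then exposed to agonist for 5 min at 37 °C. Cells lysed and phospho-ERK1/2 measured by AlphaScreen SureFire.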

[3] = target: T3, human muscarinic M3 receptor (Homo sapiens, UniProt P20309); assay: Alphascreen Surefire phospho-ERK1/2 functional assay, M3; conditions: for Emax: CHO, read-out: % Emax cf. ACh, M3, CHO cells stably expressing human M3; for Emax / % Emax cf. ACh, M3: Emax relative to ACh; for EC50: phospho-ERK1/2
T3 construct: expressed in transfected cells
T3 sequence (P20309 whole entry): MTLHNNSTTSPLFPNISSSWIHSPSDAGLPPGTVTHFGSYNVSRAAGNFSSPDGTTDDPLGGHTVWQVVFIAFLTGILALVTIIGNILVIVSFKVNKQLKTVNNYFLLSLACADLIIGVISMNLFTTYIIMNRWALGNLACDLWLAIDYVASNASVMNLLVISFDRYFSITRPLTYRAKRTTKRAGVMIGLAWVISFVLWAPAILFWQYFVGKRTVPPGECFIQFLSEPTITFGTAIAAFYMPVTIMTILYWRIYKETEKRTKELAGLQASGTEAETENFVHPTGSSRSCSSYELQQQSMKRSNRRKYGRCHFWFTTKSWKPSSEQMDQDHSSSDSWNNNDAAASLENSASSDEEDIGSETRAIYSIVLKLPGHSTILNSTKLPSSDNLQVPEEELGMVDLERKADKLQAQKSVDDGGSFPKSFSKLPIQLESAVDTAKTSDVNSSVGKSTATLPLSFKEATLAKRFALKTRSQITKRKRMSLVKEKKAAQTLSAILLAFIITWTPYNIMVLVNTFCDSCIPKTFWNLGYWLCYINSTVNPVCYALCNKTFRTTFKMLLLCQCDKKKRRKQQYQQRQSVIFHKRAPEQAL
Experimental: as §1, §2

[4] = target: T4, human muscarinic M4 receptor (Homo sapiens, UniProt P08173); assay: Alphascreen Surefire phospho-ERK1/2 functional assay, M4; conditions: for EC50: phospho-ERK1/2
T4 sequence (P08173 1-479): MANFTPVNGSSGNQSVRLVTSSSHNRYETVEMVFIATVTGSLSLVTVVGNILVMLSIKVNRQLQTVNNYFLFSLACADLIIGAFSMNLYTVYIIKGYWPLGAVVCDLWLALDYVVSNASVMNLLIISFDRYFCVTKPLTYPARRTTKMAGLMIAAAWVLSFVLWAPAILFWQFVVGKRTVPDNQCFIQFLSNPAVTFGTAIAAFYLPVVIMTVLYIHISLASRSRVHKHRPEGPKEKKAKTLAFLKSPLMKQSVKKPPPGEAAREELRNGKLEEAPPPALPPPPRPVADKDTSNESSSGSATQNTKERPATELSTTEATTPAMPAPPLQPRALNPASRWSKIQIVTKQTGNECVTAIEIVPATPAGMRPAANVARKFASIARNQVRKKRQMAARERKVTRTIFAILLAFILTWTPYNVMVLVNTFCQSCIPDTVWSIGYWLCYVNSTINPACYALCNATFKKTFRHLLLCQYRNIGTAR
Procedure, shortened: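 CHO cells stably expressing human M1, M2, M3 or M4 receptor, serum-starved overnight, then stimulated with agonist for 5 min at 37 °C. Cells lysed for 15 min and phospho-ERK1/2 detected in the lysate by AlphaScreen SureFire.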

[5] = pEC50 M2, CHO cells stably expressing human M2
[6] = pEC50 M1, CHO cells stably expressing human M1
[7] = pEC50 M3, CHO cells stably expressing human M3
[8] = CHO cells stably expressing human M4, Emax relative to ACh
[9] = pEC50 M4, CHO cells stably expressing human M4
[10] = CHO cells stably expressing human M1, Emax relative to ACh

CCOC(=O)N1C2COCC1CC(N1CCC3(CC1)CNC(=O)C3)C2 (single isomer, unassigned) [Example 5-2 Isomer 2, Ethyl 7-(3-oxo-2,8-diazaspiro[4.5]dec-8-yl)-3-oxa-9-azabicyclo[3.3.1]nonane-9-carboxylate]
Emax [1]: 8% | EC50 [1, 5]: > 20000 nM | % Emax cf. ACh, M1 ([2]; CHO cells stably expressing human M1, Emax relative to ACh, listed as 5-2 Isomer 2): 61% | EC50 [2, 6]: 43.7 nM | Emax [3]: 5% | EC50 [3, 7]: > 20000 nM | % Emax cf. ACh, M4 [4, 8]: 18% | EC50 [4, 9]: > 20000 nM

CCOC(=O)N1C2COCC1CC(N1CCC3(CC1)CNC(=O)O3)C2 (single isomer, unassigned) [Example 5-3 Isomer 2, Ethyl 7-(2-oxo-1-oxa-3,8-diazaspiro[4.5]dec-8-yl)-3-oxa-9-azabicyclo[3.3.1]nonane-9-carboxylate]
EC50 ([1]; CHO cells stably expressing human M2, read-out: pEC50 M2 (converted)): > 20000 nM | Emax [1]: 4% | % Emax cf. ACh, M1 [2, 10]: 73% | EC50 ([2]; CHO cells stably expressing human M1, read-out: pEC50 M1 (converted)): 126 nM | EC50 ([3]; CHO cells stably expressing human M3, read-out: pEC50 M3 (converted)): > 20000 nM | Emax [3]: 5% | % Emax cf. ACh, M4 [4, 8]: 17% | EC50 ([4]; CHO cells stably expressing human M4, read-out: pEC50 M4 (converted)): > 20000 nM

CCOC(=O)N1C2COCC1CC(N1CCC3(CC1)OC(=O)NC3CC)C2 (single isomer, unassigned) [Example 5-4 Isomer 1a, Ethyl 7-(4-ethyl-2-oxo-1-oxa-3,8-diazaspiro[4.5]dec-8-yl)-3-oxa-9-azabicyclo[3.3.1]nonane-9-carboxylate]
% Emax cf. ACh, M2 ([1]; CHO cells stably expressing human M2, listed as 5-4 Isomer 1a): 3% | EC50 [1, 5]: > 20000 nM | % Emax cf. ACh, M1 ([2]; CHO cells stably expressing human M1, Emax relative to ACh, listed as 5-4 Isomer 1a): 76% | EC50 [2, 6]: 1480 nM | Emax [3]: 2% | EC50 [3, 7]: > 20000 nM | % Emax cf. ACh, M4 ([4]; CHO cells stably expressing human M4, Emax relative to ACh, listed as 5-4 Isomer 1a): 81% | EC50 [4, 9]: 145 nM

CCOC(=O)N1C2COCC1CC(N1CCC3(CC1)OC(=O)NC3CC)C2 (single isomer, unassigned) [Example 5-4 Isomer 2b, Ethyl 7-(4-ethyl-2-oxo-1-oxa-3,8-diazaspiro[4.5]dec-8-yl)-3-oxa-9-azabicyclo[3.3.1]nonane-9-carboxylate]
% Emax cf. ACh, M2 ([1]; CHO cells stably expressing human M2, listed as 5-4 Isomer 2b): 1% | % Emax cf. ACh, M1 ([2]; CHO cells stably expressing human M1, Emax relative to ACh, listed as 5-4 Isomer 2b): 25% | EC50 [2, 6]: 74.1 nM | % Emax cf. ACh, M3 ([3]; CHO cells stably expressing human M3): 4% | % Emax cf. ACh, M4 ([4]; CHO cells stably expressing human M4, Emax relative to ACh, listed as 5-4 Isomer 2b): 20% | EC50 [4, 9]: > 20000 nM

CCOC(=O)N1C2COCC1CC(N1CCC3(CC1)C(=O)Nc1ccccc13)C2 (single isomer, unassigned) [Example 5-5 Isomer 1, Ethyl 7-(2-oxo-1,2-dihydro-1′H-spiro[indole-3,4′-piperidin]-1′-yl)-3-oxa-9-azabicyclo[3.3.1]nonane-9-carboxylate]
% Emax cf. ACh, M2 ([1]; CHO cells stably expressing human M2, listed as 5-5 Isomer 1): 24% | EC50 [1, 5]: 123 nM | % Emax cf. ACh, M1 ([2]; CHO cells stably expressing human M1, Emax relative to ACh, listed as 5-5 Isomer 1): 75% | EC50 [2, 6]: 288 nM | Emax [3]: 4% | EC50 [3, 7]: > 20000 nM | Emax ([4]; CHO, read-out: % Emax cf. ACh, M4, CHO cells stably expressing human M4, Emax relative to ACh): 99% | EC50 [4, 9]: 21.4 nM

CCOC(=O)N1C2COCC1CC(N1CCC(N(CC(C)C)C(C)=O)CC1)C2 (single isomer, unassigned) [Example 6-1 Isomer 1, Ethyl 7-{4-[acetyl(2-methylpropyl)amino]piperidin-1-yl}-3-oxa-9-azabicyclo[3.3.1]nonane-9-carboxylate]
% Emax cf. ACh, M2 ([1]; CHO cells stably expressing human M2, listed as 6-1 Isomer 1): 26% | EC50 [1, 5]: > 20000 nM | Emax ([2]; CHO, read-out: % Emax cf. ACh, M1, CHO cells stably expressing human M1, Emax relative to ACh): 93% | EC50 [2, 6]: 178 nM | % Emax cf. ACh, M3 ([3]; CHO cells stably expressing human M3, listed as 6-1 Isomer 1): 7% | EC50 [3, 7]: > 20000 nM | % Emax cf. ACh, M4 ([4]; CHO cells stably expressing human M4, Emax relative to ACh, listed as 6-1 Isomer 1): 77% | EC50 [4, 9]: 151 nM

CCOC(=O)N1C2COCC1CC(N1CCC(N(CC(C)C)C(C)=O)CC1)C2 (single isomer, unassigned) [Example 6-1 Isomer 2, Ethyl 7-{4-[acetyl(2-methylpropyl)amino]piperidin-1-yl}-3-oxa-9-azabicyclo[3.3.1]nonane-9-carboxylate]
% Emax cf. ACh, M2 ([1]; CHO cells stably expressing human M2, listed as 6-1 Isomer 2): 90% | EC50 [1, 5]: 324 nM | % Emax cf. ACh, M1 [2, 10]: 102% | EC50 [2, 6]: 61.7 nM | % Emax cf. ACh, M3 ([3]; CHO cells stably expressing human M3, listed as 6-1 Isomer 2): 62% | % Emax cf. ACh, M4 ([4]; CHO cells stably expressing human M4, Emax relative to ACh, listed as 6-1 Isomer 2): 111% | EC50 [4, 9]: 17.4 nM
